This is an account of results in ChEMBL document CHEMBL3991601, “The target landscape of clinical kinase drugs” (Science, 2017).

One may read the Kd as the equilibrium constant for the complex coming apart.

SMILES strings stand for the structures. The source made the active and inactive calls.

Test [1] deals with S-adenosylmethionine synthase isoform type-2 (Homo sapiens, UniProt P31153).
The target of test [2] is Cyclin-dependent kinase 7 (Homo sapiens, UniProt P50613).
For test [3], the target named is T1, Membrane-associated tyrosine- and threonine-specific cdc2-inhibitory kinase (Homo sapiens, UniProt Q99640).
T1 sequence (Q99640 whole entry): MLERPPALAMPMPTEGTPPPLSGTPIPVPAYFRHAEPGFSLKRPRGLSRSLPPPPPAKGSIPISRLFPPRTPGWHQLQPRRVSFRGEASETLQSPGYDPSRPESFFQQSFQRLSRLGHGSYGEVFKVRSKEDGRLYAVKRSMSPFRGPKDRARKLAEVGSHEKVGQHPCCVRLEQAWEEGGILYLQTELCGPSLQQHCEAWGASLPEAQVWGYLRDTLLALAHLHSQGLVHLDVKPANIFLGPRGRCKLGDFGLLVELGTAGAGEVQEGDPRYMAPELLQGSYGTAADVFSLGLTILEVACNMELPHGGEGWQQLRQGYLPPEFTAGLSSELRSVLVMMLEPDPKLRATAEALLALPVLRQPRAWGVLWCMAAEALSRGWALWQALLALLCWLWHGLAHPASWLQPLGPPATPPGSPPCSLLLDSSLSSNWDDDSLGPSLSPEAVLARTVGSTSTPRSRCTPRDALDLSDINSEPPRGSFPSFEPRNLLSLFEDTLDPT

Test [4] has as its target Serine/threonine-protein kinase PAK 4 (Homo sapiens, UniProt O96013).
In another test the target is T2, Septin-9 (Homo sapiens, UniProt Q9UHD8).
T2 sequence (Q9UHD8 whole entry): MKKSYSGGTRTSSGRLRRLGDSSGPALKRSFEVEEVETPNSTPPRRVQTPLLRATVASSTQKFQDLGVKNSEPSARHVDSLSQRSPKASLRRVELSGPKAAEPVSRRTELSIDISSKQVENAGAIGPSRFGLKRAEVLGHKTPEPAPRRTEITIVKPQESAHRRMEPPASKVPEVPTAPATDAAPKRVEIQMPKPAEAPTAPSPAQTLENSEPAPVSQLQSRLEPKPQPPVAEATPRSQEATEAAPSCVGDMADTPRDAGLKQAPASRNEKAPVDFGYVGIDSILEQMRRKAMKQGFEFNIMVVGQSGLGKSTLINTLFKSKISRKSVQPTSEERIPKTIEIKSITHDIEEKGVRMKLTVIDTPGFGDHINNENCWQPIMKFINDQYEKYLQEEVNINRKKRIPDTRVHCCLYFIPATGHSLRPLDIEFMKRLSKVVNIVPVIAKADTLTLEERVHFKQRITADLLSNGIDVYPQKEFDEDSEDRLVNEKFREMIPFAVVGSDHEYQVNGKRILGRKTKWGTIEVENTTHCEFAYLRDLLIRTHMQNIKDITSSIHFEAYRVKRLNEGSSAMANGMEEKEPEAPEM

The next test concerns the target Insulin receptor (Homo sapiens, UniProt P06213).
Test [5] addresses Serine/threonine-protein kinase 16 (Homo sapiens, UniProt O75716).
Test [6] concerns the target T3, Peroxisomal acyl-coenzyme A oxidase 3 (Homo sapiens, UniProt O15254).
T3 sequence (O15254 whole entry): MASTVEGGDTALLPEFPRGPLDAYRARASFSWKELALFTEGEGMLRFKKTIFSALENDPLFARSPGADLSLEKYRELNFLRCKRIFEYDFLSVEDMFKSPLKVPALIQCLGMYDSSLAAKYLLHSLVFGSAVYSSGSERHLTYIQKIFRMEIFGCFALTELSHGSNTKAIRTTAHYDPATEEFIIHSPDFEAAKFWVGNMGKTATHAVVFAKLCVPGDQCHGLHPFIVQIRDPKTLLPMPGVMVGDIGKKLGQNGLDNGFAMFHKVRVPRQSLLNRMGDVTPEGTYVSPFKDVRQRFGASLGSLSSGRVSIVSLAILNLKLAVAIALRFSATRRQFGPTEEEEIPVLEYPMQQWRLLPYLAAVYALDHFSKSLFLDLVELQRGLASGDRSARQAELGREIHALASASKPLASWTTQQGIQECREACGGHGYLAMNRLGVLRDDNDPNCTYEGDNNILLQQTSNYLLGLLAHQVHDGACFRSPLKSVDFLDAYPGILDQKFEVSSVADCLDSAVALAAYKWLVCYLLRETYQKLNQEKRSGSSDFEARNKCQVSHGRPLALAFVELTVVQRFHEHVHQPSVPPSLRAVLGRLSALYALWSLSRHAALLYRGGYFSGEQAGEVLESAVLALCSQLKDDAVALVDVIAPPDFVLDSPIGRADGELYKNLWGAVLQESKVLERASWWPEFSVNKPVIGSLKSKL

Test [7] concerns the target Citron Rho-interacting kinase (Homo sapiens, UniProt O14578).
In another test the target is T4, dCTP pyrophosphatase 1 (Homo sapiens, UniProt Q9H773).
T4 sequence (Q9H773 whole entry): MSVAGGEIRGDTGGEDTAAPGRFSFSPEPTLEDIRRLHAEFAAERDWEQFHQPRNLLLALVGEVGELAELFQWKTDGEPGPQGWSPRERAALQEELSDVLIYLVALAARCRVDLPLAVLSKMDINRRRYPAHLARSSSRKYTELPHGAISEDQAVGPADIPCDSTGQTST

Test [8] has as its target Mitogen-activated protein kinase 1 (Homo sapiens, UniProt P28482).
The target of test [9] is Protein kinase C alpha type (Homo sapiens, UniProt P17252).
Test [10] addresses Casein kinase I isoform alpha (Homo sapiens, UniProt P48729).
In test [11] the target is Mitogen-activated protein kinase 7 (Homo sapiens, UniProt Q13164).
Mitogen-activated protein kinase 7, sequence (Q13164 whole entry): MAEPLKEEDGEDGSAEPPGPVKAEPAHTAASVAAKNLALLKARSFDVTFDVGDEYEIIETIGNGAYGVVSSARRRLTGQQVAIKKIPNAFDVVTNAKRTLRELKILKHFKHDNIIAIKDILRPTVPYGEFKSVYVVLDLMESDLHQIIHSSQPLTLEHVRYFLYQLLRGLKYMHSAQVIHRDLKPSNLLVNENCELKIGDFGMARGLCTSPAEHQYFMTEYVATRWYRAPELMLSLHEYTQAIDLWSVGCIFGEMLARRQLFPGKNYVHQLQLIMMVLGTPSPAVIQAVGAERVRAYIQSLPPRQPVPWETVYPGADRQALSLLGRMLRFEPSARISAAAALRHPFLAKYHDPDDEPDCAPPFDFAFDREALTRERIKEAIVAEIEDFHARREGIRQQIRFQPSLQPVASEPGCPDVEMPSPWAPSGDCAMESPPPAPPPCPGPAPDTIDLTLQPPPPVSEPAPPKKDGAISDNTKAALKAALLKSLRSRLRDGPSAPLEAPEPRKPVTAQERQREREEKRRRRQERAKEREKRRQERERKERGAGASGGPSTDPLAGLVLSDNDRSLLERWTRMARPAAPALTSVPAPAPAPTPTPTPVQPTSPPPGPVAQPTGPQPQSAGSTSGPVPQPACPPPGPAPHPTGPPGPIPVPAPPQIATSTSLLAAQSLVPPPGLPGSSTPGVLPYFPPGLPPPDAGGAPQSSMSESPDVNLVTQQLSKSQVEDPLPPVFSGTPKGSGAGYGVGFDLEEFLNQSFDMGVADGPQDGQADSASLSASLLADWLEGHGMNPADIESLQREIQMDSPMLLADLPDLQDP
Also: in the data inactive means no Kd found up to 30 µM.

Cyclin-dependent kinase 7, sequence (P50613 whole entry): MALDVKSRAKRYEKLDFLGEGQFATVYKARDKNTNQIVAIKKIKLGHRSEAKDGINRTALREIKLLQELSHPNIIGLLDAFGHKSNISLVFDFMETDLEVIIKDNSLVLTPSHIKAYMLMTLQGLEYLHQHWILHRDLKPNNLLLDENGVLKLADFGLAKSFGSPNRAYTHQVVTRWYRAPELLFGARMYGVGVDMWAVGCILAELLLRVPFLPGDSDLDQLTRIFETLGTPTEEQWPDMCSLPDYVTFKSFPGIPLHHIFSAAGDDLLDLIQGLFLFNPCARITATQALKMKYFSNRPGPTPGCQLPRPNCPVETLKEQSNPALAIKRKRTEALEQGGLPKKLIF
Serine/threonine-protein kinase 16, sequence (O75716 whole entry): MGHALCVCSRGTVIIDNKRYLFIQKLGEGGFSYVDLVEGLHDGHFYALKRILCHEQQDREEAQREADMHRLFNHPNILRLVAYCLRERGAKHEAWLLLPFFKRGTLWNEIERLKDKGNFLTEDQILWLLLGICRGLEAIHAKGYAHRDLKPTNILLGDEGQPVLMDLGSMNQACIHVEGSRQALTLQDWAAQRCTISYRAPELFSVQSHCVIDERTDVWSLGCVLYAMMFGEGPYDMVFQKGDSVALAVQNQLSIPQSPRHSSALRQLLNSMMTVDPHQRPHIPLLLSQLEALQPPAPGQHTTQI
Serine/threonine-protein kinase PAK 4, sequence (O96013 whole entry): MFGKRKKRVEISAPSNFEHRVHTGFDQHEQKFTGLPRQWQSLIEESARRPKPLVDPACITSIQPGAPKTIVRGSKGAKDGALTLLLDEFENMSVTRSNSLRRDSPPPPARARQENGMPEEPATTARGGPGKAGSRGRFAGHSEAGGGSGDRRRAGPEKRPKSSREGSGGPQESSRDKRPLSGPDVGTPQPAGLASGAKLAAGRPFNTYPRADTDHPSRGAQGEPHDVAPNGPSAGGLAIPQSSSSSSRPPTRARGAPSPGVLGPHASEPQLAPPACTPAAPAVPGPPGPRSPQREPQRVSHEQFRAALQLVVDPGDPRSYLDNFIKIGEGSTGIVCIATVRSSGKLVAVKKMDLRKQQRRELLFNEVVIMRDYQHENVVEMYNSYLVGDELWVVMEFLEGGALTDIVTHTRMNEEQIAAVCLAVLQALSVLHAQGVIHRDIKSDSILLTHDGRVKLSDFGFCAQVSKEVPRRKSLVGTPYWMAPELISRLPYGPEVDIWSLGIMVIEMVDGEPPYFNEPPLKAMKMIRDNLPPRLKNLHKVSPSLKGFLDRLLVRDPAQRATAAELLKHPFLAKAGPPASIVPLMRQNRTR
S-adenosylmethionine synthase isoform type-2, sequence (P31153 whole entry, canonical isoform): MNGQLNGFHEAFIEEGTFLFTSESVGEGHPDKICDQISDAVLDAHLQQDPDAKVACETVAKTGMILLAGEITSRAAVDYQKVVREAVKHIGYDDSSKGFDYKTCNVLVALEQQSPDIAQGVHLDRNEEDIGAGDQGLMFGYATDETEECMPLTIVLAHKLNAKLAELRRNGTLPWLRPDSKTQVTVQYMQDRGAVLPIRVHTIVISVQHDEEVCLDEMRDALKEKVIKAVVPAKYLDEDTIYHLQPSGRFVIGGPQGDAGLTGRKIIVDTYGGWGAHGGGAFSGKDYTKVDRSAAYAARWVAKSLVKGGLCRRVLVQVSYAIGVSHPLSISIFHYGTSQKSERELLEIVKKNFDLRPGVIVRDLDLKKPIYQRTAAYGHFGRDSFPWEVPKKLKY
Mitogen-activated protein kinase 1, sequence (P28482 whole entry): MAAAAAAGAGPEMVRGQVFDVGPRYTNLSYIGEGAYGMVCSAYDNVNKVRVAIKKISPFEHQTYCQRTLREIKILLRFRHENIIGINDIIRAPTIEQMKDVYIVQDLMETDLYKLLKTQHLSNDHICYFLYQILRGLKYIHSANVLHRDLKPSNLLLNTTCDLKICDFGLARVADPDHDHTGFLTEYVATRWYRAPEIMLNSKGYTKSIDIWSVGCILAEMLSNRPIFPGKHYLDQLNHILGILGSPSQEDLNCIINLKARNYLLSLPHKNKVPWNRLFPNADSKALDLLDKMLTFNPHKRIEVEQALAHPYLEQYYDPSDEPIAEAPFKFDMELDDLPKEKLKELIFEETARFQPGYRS
Insulin receptor, sequence (P06213 28-758 limits assumed): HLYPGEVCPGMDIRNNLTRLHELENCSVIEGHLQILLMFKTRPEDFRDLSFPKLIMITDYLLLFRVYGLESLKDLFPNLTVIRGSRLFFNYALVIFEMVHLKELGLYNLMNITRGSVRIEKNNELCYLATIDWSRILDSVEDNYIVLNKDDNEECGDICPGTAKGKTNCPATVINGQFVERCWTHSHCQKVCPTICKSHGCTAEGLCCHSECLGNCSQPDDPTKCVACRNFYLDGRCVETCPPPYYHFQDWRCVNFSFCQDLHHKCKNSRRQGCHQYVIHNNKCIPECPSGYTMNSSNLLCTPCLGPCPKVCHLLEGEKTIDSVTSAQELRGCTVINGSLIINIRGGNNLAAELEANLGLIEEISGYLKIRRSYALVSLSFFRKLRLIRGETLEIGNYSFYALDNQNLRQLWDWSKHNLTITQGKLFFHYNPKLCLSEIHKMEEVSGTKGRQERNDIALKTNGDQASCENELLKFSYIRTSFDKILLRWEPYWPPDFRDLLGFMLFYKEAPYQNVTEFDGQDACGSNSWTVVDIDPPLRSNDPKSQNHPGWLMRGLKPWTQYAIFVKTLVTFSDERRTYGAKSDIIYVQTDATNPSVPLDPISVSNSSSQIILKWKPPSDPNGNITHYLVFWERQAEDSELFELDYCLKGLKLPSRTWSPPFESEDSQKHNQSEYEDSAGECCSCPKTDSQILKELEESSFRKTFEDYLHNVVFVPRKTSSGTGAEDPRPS
Insulin receptor, sequence (P06213 763-1382 limits assumed): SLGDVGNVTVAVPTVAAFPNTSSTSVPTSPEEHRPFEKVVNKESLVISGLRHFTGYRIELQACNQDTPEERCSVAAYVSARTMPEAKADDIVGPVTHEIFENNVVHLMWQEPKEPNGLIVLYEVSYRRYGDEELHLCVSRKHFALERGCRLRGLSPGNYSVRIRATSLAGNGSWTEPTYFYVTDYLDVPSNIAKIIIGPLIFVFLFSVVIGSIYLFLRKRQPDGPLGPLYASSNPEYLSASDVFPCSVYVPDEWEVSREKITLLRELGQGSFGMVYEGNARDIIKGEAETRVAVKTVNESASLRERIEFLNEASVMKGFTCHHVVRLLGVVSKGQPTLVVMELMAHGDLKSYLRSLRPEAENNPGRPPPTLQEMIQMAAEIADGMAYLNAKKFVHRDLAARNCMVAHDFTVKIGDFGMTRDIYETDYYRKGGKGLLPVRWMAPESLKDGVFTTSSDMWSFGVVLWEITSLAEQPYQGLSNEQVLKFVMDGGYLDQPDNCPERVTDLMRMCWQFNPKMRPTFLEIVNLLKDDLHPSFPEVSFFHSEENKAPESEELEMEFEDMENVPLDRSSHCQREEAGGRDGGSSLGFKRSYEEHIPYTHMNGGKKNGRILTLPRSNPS

Turning to `CC[C@@](C)(Nc1ccnc(-c2c[nH]c3ncccc23)n1)C(=O)NCC(F)(F)F` [DECERNOTINIB], the Kd (in test [1]; in [2]; in test [3]; in [4]; at Septin-9; on Insulin receptor) was > 30 µM (inactive) throughout. Moreover, the Kd is > 30 µM (inactive) in test [5]; > 30 µM (inactive) in [6]; > 30 µM (inactive) in test [7]; > 30 µM (inactive) on dCTP pyrophosphatase 1; > 30 µM (inactive) in test [8]; 0.117 µM (active) in test [9]. For the same compound, the Kd in test [10] and in test [11] was > 30 µM (inactive) throughout.
In the case of `COc1cc2ncnc(Nc3ccc(O)cc3)c2cc1OC` [WHI-P131], the Kd (in [1]; in test [2]; in test [3]; in test [4]; at Septin-9; on Insulin receptor) was > 30 µM (inactive) each time. Besides, the Kd (in [5]; in test [6]; in test [7]; at dCTP pyrophosphatase 1; in test [8]; in test [9]) was > 30 µM (inactive) throughout. The Kd in [10] and in test [11] was > 30 µM (inactive) each time.
Turning to `CNC(=O)c1cc(COc2nnc(Nc3ccc(Cl)cc3)c3ccoc23)ccn1` [TELATINIB], the Kd (in [1]; in test [2]; in test [3]; in test [4]; on Septin-9; at Insulin receptor) was > 30 µM (inactive) throughout. Also, the Kd (in test [5]; in test [6]; in test [7]; at dCTP pyrophosphatase 1; in test [8]; in test [9]) was > 30 µM (inactive) in each case. Besides, the Kd in [10] and in test [11] was > 30 µM (inactive) each time.
Consider `S=C(NCc1ccc2c(c1)OCO2)N1CCN(c2ncnc3c2oc2ccccc23)CC1` [AMUVATINIB], for which the Kd (in test [1]; in test [2]; in test [3]; in test [4]; on Septin-9; on Insulin receptor) was > 30 µM (inactive) throughout. The Kd (in [5]; in [6]; in test [7]; on dCTP pyrophosphatase 1; in test [8]; in [9]) was > 30 µM (inactive) in each case. Besides, the Kd in test [10] and in [11] was > 30 µM (inactive) each time.
In the case of `COc1cc(F)c(F)c(Nc2ccc(I)cc2F)c1NS(=O)(=O)C1(C[C@H](O)CO)CC1` [REFAMETINIB], the Kd (in test [1]; in test [2]; in test [3]; in [4]; on Septin-9; on Insulin receptor) was > 30 µM (inactive) in each case. Further, the Kd (in [5]; in [6]; in [7]; on dCTP pyrophosphatase 1; in [8]; in [9]) was > 30 µM (inactive) throughout. For the same compound, the Kd in test [10] and in test [11] was > 30 µM (inactive) in each case.
`Cc1ccc(C(=O)Nc2ccc(Oc3cc4cnn(C)c4cc3-c3cn[nH]c3)c(F)c2)c(=O)n1-c1ccc(F)cc1` [MERESTINIB]: the Kd (in [1]; in test [2]; in [3]; in test [4]; at Septin-9; at Insulin receptor) was > 30 µM (inactive) each time. Also, the Kd (in [5]; in [6]; in test [7]; at dCTP pyrophosphatase 1; in test [8]; in [9]) was > 30 µM (inactive) in each case. In addition, the Kd in [10] and in [11] was > 30 µM (inactive) in each case.
For `C=CC(=O)Nc1cccc(Nc2nc(Nc3ccc(N4CCN(C(C)=O)CC4)cc3OC)ncc2C(F)(F)F)c1` [ROCILETINIB], the Kd (in test [1]; in test [2]; in test [3]; in test [4]; on Septin-9; at Insulin receptor) was > 30 µM (inactive) throughout. Also, the Kd (in [5]; in test [6]; in [7]; at dCTP pyrophosphatase 1; in [8]; in [9]) was > 30 µM (inactive) in each case. Also, the Kd in [10] and in test [11] was > 30 µM (inactive) in each case.
As to `C=CC(=O)Nc1cc(Nc2nccc(-c3cn(C)c4ccccc34)n2)c(OC)cc1N(C)CCN(C)C` [OSIMERTINIB], the Kd (in [1]; in test [2]; in test [3]; in test [4]; on Septin-9; at Insulin receptor) was > 30 µM (inactive) throughout. Also, the Kd (in test [5]; in test [6]; in test [7]; at dCTP pyrophosphatase 1; in test [8]; in test [9]) was > 30 µM (inactive) each time. Moreover, the Kd in [10] and in test [11] was > 30 µM (inactive) throughout.
